Results published in the METLIN SMRT retention time set (Domingo-Almenara et al. 2019).

Assay: gradient 5% acetonitrile 3 min, to 50% in 2 min, to 85% in 15 min, held 3 min, 100 µL/min
Details: column: Zorbax Extend-C18 2.1 x 50 mm; eluents: water / acetonitrile, 0.1% formic acid
In short: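 Using water and acetonitrile that each contained 0.1% formic acid, mixtures of ~100 pure standards were separated at 100 μL/min on a Zorbax Extend-C18 column (2.1 × 50 mm, 1.8 μm). The HPLC fed a quadrupole time-of-flight mass spectrometer working in positive and negative ionization mode, with dead and dwell volumes of 40 μL and 900 μL. Data were acquired over 3 months. Retention time was read from computationally picked adduct peaks after manual inspection of each.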

SMILES | RP-LC retention time [s]
CCOCC(=O)N1CCCN(C2=NS(=O)(=O)C(c3ccc(C)c(C)c3)=C2C)CC1 | 795
O=C(NCc1cccc(Cl)c1)C1CCc2nc(N3CCOCC3)ncc2C1 (stereo not drawn) | 726
COc1ccccc1NC(=O)N1CCCC1c1c(C)noc1C (stereo not drawn) | 797
Cc1ccc(N2C(=O)CN(S(=O)(=O)c3ccccc3)CC2(C)C(=O)NC2CCCC2)c(C)c1 (stereo not drawn) | 983
Cc1ccc(CN2C(=O)N(c3ccc(F)cc3)c3ncccc3S2(=O)=O)cc1 | 1100
CC(NC(=O)CN1c2ccc(F)cc2-c2ccccc2S1(=O)=O)c1ccccc1 (stereo not drawn) | 937
CN1c2ccccc2C(=O)NC12CCN(C(=O)Nc1ccccc1F)CC2 | 695
CCOC(=O)c1c(NCc2ccc(F)cc2)c2ccc(Cl)cc2[nH]c1=O | 858
Cc1nc(-c2ccccc2OC2CN(S(=O)(=O)c3c(C)noc3C)C2)no1 | 904
CCCn1cc(S(=O)(=O)NCc2ccc(C)c(C)c2)c2cccnc21 | 984
O=C(NCc1cccc(F)c1)N1CCC(OC2CCN(Cc3ccccc3)CC2)CC1 | 589
Cc1nc2c(ccc3nc(NC(=O)c4cc(=O)c5ccccc5o4)sc32)s1 | 828
Cc1ccc(-c2cc3n(n2)CCCN(C(=O)c2ccncc2)C3)cc1 | 689
Cc1[nH]c(/C=C2\C(=O)Nc3ccccc32)c(C)c1CCC(=O)O | 820
Cc1ccc(CC(=O)Nc2ccc(-c3nc(Cn4cccn4)c(C)o3)cc2)cc1 | 880
Cc1nc2scc(C)n2c(=O)c1S(=O)(=O)N1CCN(c2ccccn2)CC1 | 584
Cn1cc(-c2nc(C(=O)Nc3cccc(F)c3)cs2)c2cccnc21 | 1020
O=C(NC1CCCCC1)c1cccc(Nc2c(-c3ccc(F)cc3)nc3cnccn23)c1 | 848
CC(C)CNC(=O)C1COC2(CCCCC2)N1C(=O)c1ccccc1C(F)(F)F (stereo not drawn) | 938
Cc1ccc(Nc2c(-c3ccc(N(C)C)cc3)nc3cc(C)ccn23)cc1 | 828
Cc1sc(NC(=O)CSc2nnc(COc3ccccc3)o2)nc1-c1ccccc1 | 877
Cc1ccc2c(c1)cc(S(=O)(=O)c1ccccc1)c(=O)n2CC(=O)NCc1ccc2c(c1)OCO2 | 899

SMILES | RP-LC retention time [s]
CCNC(=O)CN1c2ccc(F)cc2-c2ccccc2S1(=O)=O | 786
O=C(Nc1cc(F)ccc1F)N1CCCC1c1nncn1-c1ccccc1 (stereo not drawn) | 717
Cn1cnc(S(=O)(=O)N2CCC(C(=O)NCc3cccs3)CC2)c1 | 640
CC(=O)Oc1ccc(OC(C)=O)c2c1CC1(C)OC1(C)C2 (stereo not drawn) | 703
Cn1nnnc1NCc1ccc(-c2cccc(Cl)c2)o1 | 826
O=C(NC1CC1)c1ccc(CN2CCN(Cc3ccc(F)cc3)C(=O)C2=O)cc1 | 673
CC(C)(C)c1noc(-c2ccc(-n3cnc(C(=O)NCc4ccccc4F)c3)nc2)n1 | 1050
COc1cccc(-c2noc(Cn3nc4ccc(-c5ccc(C)c(C)c5)nn4c3=O)n2)c1OC | 969
COc1ccc(-c2noc(C3CC(=O)N(c4ccc(C)c(F)c4)C3)n2)c(OC)c1 (stereo not drawn) | 948
Cc1ccc(NC(=O)C2CCCN(S(=O)(=O)c3cc(-c4noc(C5CCC5)n4)cs3)C2)cc1 (stereo not drawn) | 1170
CC(=O)N1CCCSc2ccc(S(=O)(=O)N3CCCC(CN4CCc5ccccc5C4)C3)cc21 (stereo not drawn) | 687
COc1ccc(-c2cn3c(CC(=O)Nc4cc(C)on4)csc3n2)cc1OC | 664
Cc1nc(-c2cc(S(=O)(=O)N(C)C3CCCCC3)cn2C)sc1C(=O)N1CCCC1 | 959
COc1ccc(NC(=O)Cn2cccc2-c2nnc(C3CCC3)o2)cc1 | 850
O=S(=O)(c1ccc2nc(N3CCN(Cc4ccc5c(c4)OCO5)CC3)cnc2c1)N1CCCCC1 | 728
Fc1ccc(Cn2cc(-c3noc(-c4cccc(F)c4)n3)nn2)cc1 | 1010
CC(=O)c1cccc(NC(=O)Cn2c(=O)n(-c3cccc(C)c3)c(=O)c3c2cc(C)n3C)c1 | 796
Cc1ccc(NC(=O)CCc2nc(-c3ccc(N4CCCC4)cc3)no2)c(Br)c1 | 1170
CCc1ccc(C2=C(C)C(N3CCC(NC(=O)NC(C)(C)C)CC3)=NS2(=O)=O)cc1 | 928
COC(=O)NCc1nnnn1-c1ccc(OC)cc1 | 616
Cc1nc(-c2noc(-c3ccccc3)n2)cn1CC(=O)NCc1ccccc1F | 810
CC(C)NC(C)Cc1ccc(I)cc1 (stereo not drawn) | 746

SMILES | RP-LC retention time [s]
CCOc1cc(=O)n2c(c1C(=O)OCc1cccc(F)c1)CCCCC2 | 934
CCc1cc(=O)n(CC(=O)Nc2ccc(F)cc2)c(N2CCOCC2)n1 | 714
CN1C(=O)Cc2cc(NC(=O)c3ccc(C(F)(F)F)cc3)ccc21 | 748
O=C1NCCCCCCN(C(=O)C2CCCCC2)[C@H]2C[C@H](C(=O)N3CCc4ccccc4C3)C[C@@H]12 | 924
CCCc1ccc(S(=O)(=O)NCc2c(-c3ccccc3)nc3sc(C)nn23)cc1 | 1030
CN1CCN(C(=O)c2cc3n(n2)CC(C)(C(=O)NCc2ccc(F)cc2)N(C)C3=O)CC1 (stereo not drawn) | 576
CCOC(=O)N1CCN(C(=O)CN2CCC(COCc3ccccc3)CC2)CC1 | 571
Fc1ccc(Nc2nc(N3CCOCC3)nc3[nH]ncc23)cc1 | 601
O=C(NC1CCCC1)c1cn(-c2ncccc2-c2nc(-c3ccccc3)no2)cn1 | 867
Cc1cc(=O)n(CC(=O)Nc2ccc(F)cc2C)c(N2CCOCC2)n1 | 644
O=C(C1CCCCC1)N1CCC(F)(C(=O)NC2CC2)CC1 | 637
Cc1ccccc1S(=O)(=O)N1CCC(c2noc(-c3cccnc3)n2)C1 (stereo not drawn) | 908
CC1(C(=O)NCc2ccccc2)CN(S(C)(=O)=O)CC(=O)N1C1CC1 (stereo not drawn) | 662
COc1ccc(C(=O)N2CCCC2c2nc(-c3ccc(OC)c(OC)c3)no2)cc1OC (stereo not drawn) | 817
CC(C)CC(C(=O)Nc1cccc(O)c1)N1C(=O)c2ccccc2C1=O (stereo not drawn) | 823
Cc1nnc(N2CCCC(C(=O)NCCN3CCOCC3)C2)c2nn(-c3ccc(Cl)cc3)c(C)c12 (stereo not drawn) | 590
Fc1cccc(CN2CCc3nc(N4CCN(c5ncccn5)CC4)ncc3C2)c1 | 633
Cc1sc(NC(=O)c2ccccc2F)nc1-c1ccc2c(c1)NC(=O)C(C)O2 (stereo not drawn) | 899
CCc1noc(-c2cnc3nc(C)ccc3c2NCc2cc(OC)ccc2OC)n1 | 735
COc1ccc(C(=O)Cn2c(=O)n(Cc3ccc4c(c3)OCO4)c(=O)c3ncccc32)cc1 | 819
CC(=O)OC1CCN(C(=O)c2ccc(C#N)cc2)CC1 | 698
O=C1NCCOCCN(C(=O)Nc2ccc3c(c2)OCCO3)[C@@H]2CCCC[C@H]12 | 722

SMILES | RP-LC retention time [s]
Cc1ccc(S(=O)(=O)N2C(=O)CCC2C(=O)N2CCN(c3ccccn3)CC2)cc1 (stereo not drawn) | 612
CCCn1ccc2sc(C)c(C(=O)NCc3cccc(OC)c3)c2c1=O | 856
CC(C)COc1cc(=O)n2c(c1C(=O)NCC1CCCCC1)CCCCC2 | 864
CCNS(=O)(=O)c1cccnc1Nc1ccc(Cl)c(C)c1 | 1100
CCOc1ccccc1CN1C[C@@H]2C(=O)N(C)C(=O)[C@@H]2C1 | 595
COc1ccc(C2Cn3cnc(C(=O)N4CCC(C(=O)Nc5cc(C)cc(C)c5)CC4)c3CO2)cc1 (stereo not drawn) | 751
Cc1nc2cc(NC(=O)c3ccc(N4CCOCC4)nn3)ccc2s1 | 676
CCS(=O)(=O)c1nc2ccc(NS(=O)(=O)c3cc(Cl)ccc3OC)cc2s1 | 914
COc1ccc(NC(=O)N2CCC(n3c(-c4ccoc4)nc4cccnc43)C2)cc1 (stereo not drawn) | 698
Cc1ccc(Nc2nc(N)nc(CN3CCC(C(N)=O)CC3)n2)cc1 | 565
CC1CCCN(C(=O)CN(C)S(=O)(=O)c2ccc3c(c2)CCCC(=O)N3)C1 (stereo not drawn) | 718
CCCn1cc(S(=O)(=O)Nc2ccc(F)c(C)c2)c2cccnc21 | 923
O=C(c1n[nH]c2c1CCCC2)N1CCC2(CC1)N=C(c1ccccc1)NO2 | 698
CCc1nc(-c2csc(S(=O)(=O)N3CCCC(C(=O)NCc4ccccn4)C3)c2)no1 (stereo not drawn) | 681
CCOc1ccc(-n2c(=O)c3sccc3n(Cc3nc(-c4ccc(CC)cc4)no3)c2=O)cc1 | 1170
CCc1cc(C(=O)N2CCN(CC)CC2)nc2cc(-c3ccsc3)nn12 | 664
CCn1cc(-c2ccc(Cl)cc2)cc1C(=O)NCc1ccncc1 | 720
O=S1(=O)N=CN(c2ccc(F)cc2)c2ncccc21 | 738
O=C(NCCc1csc(-c2ccccc2)n1)C1CCN(C(=O)c2cccc(Cl)c2)CC1 | 846
COc1cc(C(=O)N(Cc2ccc(N(C)C)cc2)C2CCS(=O)(=O)C2)cc(OC)c1OC (stereo not drawn) | 634
O=C(NCCc1csc(C2CCN(C(=O)C3CC3)CC2)n1)C1CC1 | 640
CCOc1ccc2c(n1)CCN(C(=O)Nc1cc(C)ccc1C)C2 | 862
